Results published in PubChem BioAssay (NCI).
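Briefly, cells in 96-well plates were exposed to five compound concentrations for 48 h, and endpoints were estimated by linear interpolation. Here, GI50 denotes the concentration required for 50% inhibition of growth. TGI: concentration producing complete growth inhibition.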

How the values were obtained:
Experiment in all cases: DTP human tumour cell line panel, 48 h
OVCAR-8 ovarian = test system: OVCAR-8 ovarian
SNB-75 CNS = test system: SNB-75 CNS
SK-MEL-2 melanoma = test system: SK-MEL-2 melanoma
OVCAR-4 ovarian = test system: OVCAR-4 ovarian
HL-60(TB) leukemia = test system: HL-60(TB) leukemia
SR leukemia = test system: SR leukemia
CCRF-CEM leukemia = test system: CCRF-CEM leukemia
RXF 393 renal = test system: RXF 393 renal
SK-OV-3 ovarian = test system: SK-OV-3 ovarian
K-562 leukemia = test system: K-562 leukemia
RPMI-8226 leukemia = test system: RPMI-8226 leukemia
A498 renal = test system: A498 renal
HS 578T breast = test system: HS 578T breast
HT29 colon = test system: HT29 colon
A549 NSCLC = test system: A549 NSCLC
COLO 205 colon = test system: COLO 205 colon
MCF7 breast = test system: MCF7 breast
EKVX NSCLC = test system: EKVX NSCLC
HOP-92 NSCLC = test system: HOP-92 NSCLC
OVCAR-5 ovarian = test system: OVCAR-5 ovarian
NCI-H226 lung = test system: NCI-H226 lung
UACC-257 melanoma = test system: UACC-257 melanoma
DU-145 prostate = test system: DU-145 prostate
KM12 colon = test system: KM12 colon
MDA-MB-435 = test system: MDA-MB-435
SF-295 CNS = test system: SF-295 CNS
OVCAR-3 ovarian = test system: OVCAR-3 ovarian
UACC-62 melanoma = test system: UACC-62 melanoma
MDA-MB-231 breast = test system: MDA-MB-231 breast
HOP-62 NSCLC = test system: HOP-62 NSCLC
SN12C renal = test system: SN12C renal
LOX IMVI melanoma = test system: LOX IMVI melanoma
M14 melanoma = test system: M14 melanoma
TK-10 renal = test system: TK-10 renal
IGROV1 ovarian = test system: IGROV1 ovarian
SNB-19 CNS = test system: SNB-19 CNS
SK-MEL-5 melanoma = test system: SK-MEL-5 melanoma
UO-31 renal = test system: UO-31 renal
NCI-H23 lung = test system: NCI-H23 lung
MOLT-4 leukemia = test system: MOLT-4 leukemia
U251 CNS = test system: U251 CNS
HCT-15 colon = test system: HCT-15 colon
786-0 renal = test system: 786-0 renal
BT-549 breast = test system: BT-549 breast
SW-620 colon = test system: SW-620 colon
NCI/ADR-RES ovarian = test system: NCI/ADR-RES ovarian
SF-268 CNS = test system: SF-268 CNS
NCI-H460 lung = test system: NCI-H460 lung
CAKI-1 renal = test system: CAKI-1 renal
SK-MEL-28 melanoma = test system: SK-MEL-28 melanoma
T-47D breast = test system: T-47D breast

Molecule `C[C@H](c1ccc(Cl)cc1[N+](=O)[O-])N1C(=O)c2cc(I)ccc2N=C(OCCCN2CCN(C)CC2)[C@@H]1c1ccc(Cl)cc1` has a GI50 (OVCAR-8 ovarian) of 1.61 µM, a TGI (OVCAR-8 ovarian) of 3.4 µM and a GI50 (SNB-75 CNS) of 1.71 µM. The TGI (SNB-75 CNS) was 4.27 µM, the GI50 (SK-MEL-2 melanoma) was 2.11 µM and the TGI (SK-MEL-2 melanoma) was 4.05 µM. For the same molecule, the GI50 (OVCAR-4 ovarian) was 1.6 µM, the TGI (OVCAR-4 ovarian) was 3.15 µM and the GI50 (HL-60(TB) leukemia) was 2.44 µM. The TGI (HL-60(TB) leukemia) was 4.41 µM, the GI50 (SR leukemia) was 1.65 µM and the TGI (SR leukemia) was 3.88 µM. For the same molecule, the GI50 (CCRF-CEM leukemia) was 2.18 µM, the TGI (CCRF-CEM leukemia) was 5.41 µM and the GI50 (RXF 393 renal) was 1.73 µM. The TGI (RXF 393 renal) was 3.25 µM, the GI50 (SK-OV-3 ovarian) was 1.79 µM and the TGI (SK-OV-3 ovarian) was 3.24 µM. For the same molecule, the GI50 (K-562 leukemia) was 1.81 µM, the TGI (K-562 leukemia) was 4.03 µM and the GI50 (RPMI-8226 leukemia) was 2.33 µM. For the same molecule, the TGI (RPMI-8226 leukemia) was 6.5 µM, the GI50 (A498 renal) was 2.08 µM and the TGI (A498 renal) was 5.42 µM. The GI50 (HS 578T breast) was 2.02 µM, the TGI (HS 578T breast) was 6.47 µM and the GI50 (HT29 colon) was 1.91 µM. The TGI (HT29 colon) was 3.49 µM, the GI50 (A549 NSCLC) was 1.57 µM and the TGI (A549 NSCLC) was 3.14 µM. For the same molecule, the GI50 (COLO 205 colon) was 1.69 µM, the TGI (COLO 205 colon) was 3.27 µM and the GI50 (MCF7 breast) was 1.64 µM. The TGI (MCF7 breast) was 3.26 µM.
In the case of `Nc1nc(Cl)cc(OCC2(CO)CCC2)n1`, the GI50 (SNB-75 CNS) was 68.4 µM, the GI50 (EKVX NSCLC) was 60.6 µM and the GI50 (HOP-92 NSCLC) was 51.3 µM.
With `CCc1cccc2c3c([nH]c12)-c1ccccc1NC(=O)C3` the TGI (OVCAR-5 ovarian) was greater than 100 µM, the TGI (NCI-H226 lung) was greater than 100 µM and the TGI (UACC-257 melanoma) was greater than 100 µM. The TGI (DU-145 prostate) was greater than 100 µM, the TGI (KM12 colon) was greater than 100 µM and the TGI (OVCAR-8 ovarian) was greater than 100 µM. The TGI (SNB-75 CNS) was greater than 100 µM, the TGI (SK-MEL-2 melanoma) was greater than 100 µM and the TGI (MDA-MB-435) was greater than 100 µM. For the same molecule, the TGI (SF-295 CNS) was greater than 100 µM, the TGI (OVCAR-3 ovarian) was greater than 100 µM and the TGI (UACC-62 melanoma) was greater than 100 µM. For the same molecule, the TGI (MDA-MB-231 breast) was greater than 100 µM, the TGI (HOP-62 NSCLC) was greater than 100 µM and the TGI (SN12C renal) was greater than 100 µM. For the same molecule, the TGI (HL-60(TB) leukemia) was greater than 100 µM, the TGI (LOX IMVI melanoma) was greater than 100 µM and the TGI (CCRF-CEM leukemia) was greater than 100 µM. The TGI (EKVX NSCLC) was greater than 100 µM, the TGI (HOP-92 NSCLC) was greater than 100 µM and the TGI (M14 melanoma) was greater than 100 µM. For the same molecule, the TGI (SK-OV-3 ovarian) was greater than 100 µM, the TGI (TK-10 renal) was greater than 100 µM and the TGI (IGROV1 ovarian) was greater than 100 µM. For the same molecule, the TGI (K-562 leukemia) was greater than 100 µM, the TGI (SNB-19 CNS) was greater than 100 µM and the TGI (SK-MEL-5 melanoma) was greater than 100 µM. The TGI (UO-31 renal) was greater than 100 µM, the TGI (NCI-H23 lung) was greater than 100 µM and the TGI (MOLT-4 leukemia) was greater than 100 µM. The TGI (U251 CNS) was greater than 100 µM, the TGI (HCT-15 colon) was greater than 100 µM and the TGI (786-0 renal) was greater than 100 µM. It also gave a TGI (RPMI-8226 leukemia) greater than 100 µM, a TGI (A498 renal) greater than 100 µM and a TGI (BT-549 breast) greater than 100 µM. It also gave a TGI (SW-620 colon) greater than 100 µM, a TGI (NCI/ADR-RES ovarian) greater than 100 µM and a TGI (SF-268 CNS) greater than 100 µM. For the same molecule, the TGI (NCI-H460 lung) was greater than 100 µM, the TGI (HS 578T breast) was greater than 100 µM and the TGI (HT29 colon) was greater than 100 µM. It also gave a TGI (A549 NSCLC) greater than 100 µM, a TGI (CAKI-1 renal) greater than 100 µM and a TGI (SK-MEL-28 melanoma) greater than 100 µM. It also gave a TGI (T-47D breast) greater than 100 µM, a TGI (COLO 205 colon) greater than 100 µM and a TGI (MCF7 breast) greater than 100 µM.
